# Key:
# [1] = tested on: Human alphaherpesvirus 1; assay: Antiviral activity against Human herpesvirus 1 strain KOS infected in human HEL cells assessed as inhibition of virus-induced cytopathicity by microscopy by microscopy; type: functional, organism-based; conditions: Human alphaherpesvirus 1, KOS
# [2] = tested on: Coxsackievirus B4; assay: Antiviral activity against Human coxsackievirus B4 infected human HeLa cells assessed as inhibition of virus-induced cytopathicity by microscopy; type: functional, organism-based; conditions: Enterovirus B
# [3] = tested on: Human alphaherpesvirus 1; assay: Antiviral activity against TK(-) aciclovir-resistant Human herpesvirus 1 strain KOS infected in human HEL cells assessed as inhibition of virus-induced cytopathicity; type: functional, organism-based; conditions: Human alphaherpesvirus 1, KOS
# [4] = tested on: Coxsackievirus B4; assay: Antiviral activity against Human coxsackievirus B4 infected Vero cells assessed as inhibition of virus-induced cytopathicity; type: functional, organism-based; conditions: Enterovirus B
# [5] = tested on: Punta Toro virus; assay: Antiviral activity against Punta Toro virus infected Vero cells assessed as inhibition of virus-induced cytopathicity; type: functional, organism-based
# [6] = tested on: Human herpesvirus 5 strain AD169; assay: Antiviral activity against Human herpesvirus 5 strain AD169 Davis infected human HEL cells assessed as inhibition of virus-induced cytopathicity by microscopy; type: functional, organism-based; conditions: Human betaherpesvirus 5, Davis
# [7] = tested on: Sindbis virus; assay: Antiviral activity against Sindbis virus infected Vero cells assessed as inhibition of virus-induced cytopathicity; type: functional, organism-based
# [8] = tested on: Human alphaherpesvirus 2; assay: Antiviral activity against Human herpesvirus 2 strain G infected human HEL cells assessed as inhibition of virus-induced cytopathicity by microscopy; type: functional, organism-based; conditions: Human alphaherpesvirus 2, strain G
# [9] = tested on: Human herpesvirus 3 strain Oka vaccine; assay: Antiviral activity against Human herpesvirus 3 strain Oka vaccine OKA 07-1 (Varicella zoster virus) infected in human HEL cells assessed as inhibition of virus-induced cytopathicity; type: functional, organism-based; conditions: Human alphaherpesvirus 3, OKA 07-1, HEL
# [10] = tested on: Vaccinia virus; assay: Antiviral activity against Vaccinia virus infected human HEL cells assessed as inhibition of virus-induced cytopathicity by microscopy; type: functional, organism-based; conditions: Orthopoxvirus vaccinia
# [11] = tested on: Mammalian orthoreovirus 1; assay: Antiviral activity against Mammalian orthoreovirus 1 infected Vero cells assessed as inhibition of virus-induced cytopathicity by microscopy; type: functional, organism-based; conditions: Mammalian orthoreovirus 1, Vero
# [12] = Cytotoxicity against Chlorocebus aethiops (African green monkey) Vero cells assessed as alteration in cell morphology by microscopy; type: cell-based; conditions: chlorocebus sabaeus
# [13] = tested on: Human immunodeficiency virus 2; assay: Antiviral activity against Human immunodeficiency virus type 2 (ISOLATE ROD) infected MT4 cells assessed as inhibition of virus-induced cytopathic effect after 4 days by MTT assay; type: functional, organism-based; conditions: Human immunodeficiency virus 2, ISOLATE ROD, MT4, 96 h
# [14] = tested on: Candida albicans; assay: Antimicrobial activity against Candida albicans after 2 days by serial dilution method; type: functional; parameters: unit not given here
# [15] = tested on: Bacillus subtilis; assay: Antimicrobial activity against Bacillus subtilis after 24 hr by serial dilution method; type: functional; parameters: unit not given here
# [16] = tested on: Human respirovirus 3; assay: Antiviral activity against Human parainfluenza virus 3 infected Vero cells assessed as inhibition of virus-induced cytopathicity by microscopy; type: functional, organism-based; conditions: Human respirovirus 3, Vero
# [17] = tested on: Mycobacterium tuberculosis; assay: Antimicrobial activity against Mycobacterium tuberculosis by agar dilution method; type: functional
# [18] = tested on: Respiratory syncytial virus; assay: Antiviral activity against Respiratory syncytial virus infected human HeLa cells assessed as inhibition of virus-induced cytopathicity by microscopy; type: functional, organism-based
# [19] = tested on: Escherichia coli; assay: Antimicrobial activity against Escherichia coli after 24 hr by serial dilution method; type: functional; parameters: unit not given here
# [20] = tested on: Candida albicans; assay: Antimicrobial activity against Candida albicans after 7 days by serial dilution method; type: functional; parameters: unit not given here
# [21] = tested on: Staphylococcus aureus; assay: Antimicrobial activity against Staphylococcus aureus after 24 hr by serial dilution method; type: functional; parameters: unit not given here
# [22] = tested on: Human immunodeficiency virus 1; assay: Antiviral activity against Human immunodeficiency virus 1 IIIB infected MT4 cells assessed as inhibition of virus-induced cytopathic effect after 4 days by MTT assay; type: functional, organism-based; conditions: MT4, 96 h
# [23] = tested on: Vesicular stomatitis virus; assay: Antiviral activity against Vesicular stomatitis virus infected human HeLa cells assessed as inhibition of virus-induced cytopathicity by microscopy; type: functional, organism-based
# [24] = Cytotoxicity against Homo sapiens (human) HeLa cells assessed as alteration in cell morphology by microscopy; type: cell-based
# [25] = Cytotoxicity against Homo sapiens (human) MT4 cells after 4 days by MTT assay; type: cell-based
# [26] = Cytotoxicity against Homo sapiens (human) HEL cells assessed as alteration in cell morphology by microscopy; type: cell-based
Compound,EC50 [1],EC50 [2],EC50 [3],EC50 [4],EC50 [5],EC50 [6],EC50 [7],EC50 [8],EC50 [9],EC50 [10],EC50 [11],MCC [12],EC50 [13],-logMIC [14],-logMIC [15],EC50 [16],MIC [17],EC50 [18],-logMIC [19],-logMIC [20],other results
O=C(N/N=C/c1ccc(Cl)cc1)c1cccnc1,> 100 mg/L,> 100 mg/L,> 100 mg/L,> 100 mg/L,> 100 mg/L,> 100 mg/L,> 100 mg/L,> 100 mg/L,> 100 mg/L,> 100 mg/L,> 100 mg/L,> 100 µg/mL,> 76 mg/L,1.32,1.02,> 100 mg/L,25 mg/L,> 100 mg/L,1.32,1.92,-logMIC [21]: 1.32; EC50 [22]: > 76 mg/L; EC50 [23]: > 100 mg/L; MCC [24]: > 100 µg/mL; CC50 at 96 h [25]: 76 mg/L; CC50 [26]: 29 mg/L; MCC [26]: > 100 µg/mL
O=C(N/N=C/c1cccc(Cl)c1)c1cccnc1,> 100 mg/L,> 100 mg/L,> 100 mg/L,> 100 mg/L,> 100 mg/L,> 100 mg/L,> 100 mg/L,> 100 mg/L,> 100 mg/L,> 100 mg/L,34 mg/L,> 100 µg/mL,> 62 mg/L,1.32,1.02,> 100 mg/L,> 25 mg/L,> 100 mg/L,1.02,1.92,-logMIC [21]: 1.32; EC50 [22]: > 62 mg/L; EC50 [23]: > 100 mg/L; MCC [24]: > 100 µg/mL; CC50 at 96 h [25]: 62 mg/L; CC50 [26]: 53 mg/L; MCC [26]: > 100 µg/mL
O=C(N/N=C/c1ccccc1Cl)c1cccnc1,> 100 mg/L,> 20 mg/L,> 100 mg/L,> 100 mg/L,> 100 mg/L,> 100 mg/L,> 100 mg/L,> 100 mg/L,> 100 mg/L,> 100 mg/L,> 100 mg/L,> 100 µg/mL,> 0.57 mg/L,1.32,1.02,> 100 mg/L,> 25 mg/L,> 20 mg/L,1.02,1.32,-logMIC [21]: 1.32; EC50 [22]: > 0.57 mg/L; EC50 [23]: > 20 mg/L; MCC [24]: 100 µg/mL; CC50 at 96 h [25]: ≥ 0.57 mg/L; CC50 [26]: 12 mg/L; MCC [26]: > 100 µg/mL
O=C(N/N=C/c1ccccc1O)c1cccnc1 [N'-(2-HYDROXYBENZYLIDENE)NICOTINOHYDRAZIDE],> 4 mg/L,> 0.8 mg/L,> 4 mg/L,> 0.8 mg/L,> 0.8 mg/L,> 0.8 mg/L,> 0.8 mg/L,> 4 mg/L,> 2.2 mg/L,> 4 mg/L,> 0.8 mg/L,4 µg/mL,> 0.61 mg/L,1.28,1.59,> 0.8 mg/L,> 25 mg/L,> 0.8 mg/L,1.29,1.29,-logMIC [21]: 1.29; EC50 [22]: > 0.61 mg/L; EC50 [23]: > 0.8 mg/L; MCC [24]: 4 µg/mL; CC50 at 96 h [25]: 0.61 mg/L; CC50 [26]: 0.42 mg/L; MCC [26]: ≥ 4 µg/mL
O=C(N/N=C/c1ccccc1)c1cccnc1 [NICOTINIC ACID BENZYLIDENE-HYDRAZIDE],> 100 mg/L,> 20 mg/L,> 100 mg/L,> 100 mg/L,> 100 mg/L,> 100 mg/L,> 100 mg/L,> 100 mg/L,> 100 mg/L,> 100 mg/L,> 100 mg/L,> 100 µg/mL,> 125 mg/L,1.25,0.95,> 100 mg/L,> 25 mg/L,> 20 mg/L,1.26,1.86,-logMIC [21]: 0.35; EC50 [22]: > 125 mg/L; EC50 [23]: > 20 mg/L; MCC [24]: 100 µg/mL; CC50 at 96 h [25]: > 125 mg/L; CC50 [26]: > 100 mg/L; MCC [26]: > 100 µg/mL

# — ChEMBL document CHEMBL3044730, “Synthesis, antimycobacterial, antiviral, antimicrobial activities, and QSAR studies of nicotinic acid benzylidene hydrazide derivatives” (Med Chem Res, 2012)
